Experimental data published in the supplement of paper PMC10307832.

These cell lines were tested with CN1CCN(CC1)C2=CC(=C(C=C2)NC3=NC=C4C(=N3)N(C5=CC=CC=C5C(=O)N4C)C)OC [XMD8-85] + CC1(C)CCC(c2ccc(Cl)cc2)=C(CN2CCN(c3ccc(C(=O)NS(=O)(=O)c4ccc(N[C@H](CCN5CCOCC5)CSc5ccccc5)c(S(=O)(=O)C(F)(F)F)c4)cc3)CC2)C1 [Navitoclax] (partner 0.5 µM) (assay: relative viability (nuclei count vs DMSO), 5 days (fraction); higher = more cells survive). Details: first compound 0.08 µM.
Outline: (§1)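 Dosing by pin tool came one day after lung cancer cell lines were seeded in 1536-well plates, using either one drug or a fixed anchor-drug dose plus five library-drug doses (not always all listed) in √10 steps. After 5 days, nuclei were counted on 4× images. Relative viability is treated-well nuclei count divided by vehicle-well nuclei count, and values are medians of duplicate plates.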

In order of rising relative viability:
1. LCLC-97TM1  0.299
2. EBC-1  0.437
3. NCI-H727  0.466
4. LC-2-ad  0.512
5. H3255  0.519
6. LOU-NH91  0.69
7. HCC-15  0.731
8. LK-2  0.74
9. IA-LM  0.75
10. ChaGo-K-1  0.788
11. COR-L 105  0.83
12. HCC-78  0.891
13. Calu-6  0.93
14. EKVX  0.931
15. HOP-62  0.996
16. HCC-827  1.02
17. NCI-H1703  1.02
18. HCC-44  1.03
19. NCI-H1299  1.1
20. EMC-BAC-2  1.12
21. HCC-366  1.12
22. HARA  1.17
23. COR-L23  1.24

Same assay, conditions: first compound 0.253 µM

In order of falling relative viability:
1. EPLC-272H  1.3
2. 201T  1.24
3. A549  1.24
4. EMC-BAC-2  1.23
5. NCI-H1703  1.18
6. HARA  1.15
7. CAL-12T  1.11
8. HOP-62  1.08
9. COR-L23  1.06
10. HCC-366  1.06
11. NCI-H1299  1.06
12. HCC-44  1.03
13. HCC-827  1.01
14. EKVX  0.999
15. A-427  0.995
16. ChaGo-K-1  0.983
17. Calu-6  0.953
18. LK-2  0.915
19. HCC-78  0.882
20. COR-L 105  0.819
21. LOU-NH91  0.764
22. HCC-15  0.642
23. H3255  0.581
24. LCLC-97TM1  0.474
25. EBC-1  0.375
26. NCI-H727  0.365
27. LC-2-ad  0.364
28. BEN  0.0742

Same assay, conditions: first compound 0.8 µM

In order of rising relative viability:
1. EBC-1  0.402
2. BEN  0.437
3. LCLC-97TM1  0.442
4. H3255  0.45
5. HCC-78  0.6
6. LOU-NH91  0.639
7. HCC-15  0.698
8. COR-L 105  0.738
9. IA-LM  0.763
10. LK-2  0.883
11. EKVX  0.89
12. Calu-6  0.911
13. HOP-62  0.939
14. HCC-827  0.985
15. COR-L23  1.02
16. ChaGo-K-1  1.02
17. A-427  1.03
18. HCC-44  1.05
19. NCI-H1299  1.06
20. EPLC-272H  1.08
21. CAL-12T  1.1
22. HARA  1.13
23. EMC-BAC-2  1.16
24. NCI-H1703  1.23
25. 201T  1.26
26. HCC-366  1.27
27. A549  1.28

Same assay, conditions: first compound 2.53 µM

In order of rising relative viability:
1. BEN  0.0692
2. EBC-1  0.296
3. LCLC-97TM1  0.329
4. NCI-H727  0.379
5. H3255  0.484
6. COR-L 105  0.563
7. LC-2-ad  0.574
8. IA-LM  0.641
9. HCC-15  0.655
10. HCC-78  0.682
11. LOU-NH91  0.7
12. LK-2  0.772
13. HCC-44  0.796
14. COR-L23  0.871
15. HCC-827  0.909
16. HOP-62  0.992
17. HARA  1
18. NCI-H1299  1
19. Calu-6  1.02
20. A-427  1.03
21. EKVX  1.03
22. EPLC-272H  1.05
23. CAL-12T  1.06
24. HCC-366  1.06
25. ChaGo-K-1  1.13
26. EMC-BAC-2  1.13
27. NCI-H1703  1.13
28. 201T  1.19
29. A549  1.19

Same assay, conditions: first compound 8 µM

In order of rising relative viability:
1. BEN  0.0637
2. IA-LM  0.185
3. NCI-H727  0.247
4. EBC-1  0.268
5. H3255  0.284
6. LC-2-ad  0.328
7. COR-L 105  0.337
8. ChaGo-K-1  0.421
9. HCC-44  0.434
10. HARA  0.443
11. HCC-15  0.499
12. LOU-NH91  0.546
13. HCC-78  0.58
14. COR-L23  0.629
15. HCC-366  0.63
16. Calu-6  0.668
17. EPLC-272H  0.679
18. LK-2  0.699
19. CAL-12T  0.759
20. HOP-62  0.79
21. LCLC-97TM1  0.796
22. NCI-H1299  0.804
23. EKVX  0.892
24. A549  0.933
25. A-427  0.95
26. NCI-H1703  0.983
27. HCC-827  1.03
28. 201T  1.08
29. EMC-BAC-2  1.16

What follows are cell lines tested with O=C(O)C(Cc1ccccc1[N+](=O)[O-])=NNc1nc(-c2ccc(Cl)c(Cl)c2)cs1 (mixture of isomers) [4EGI-1] + CC1(C)CCC(c2ccc(Cl)cc2)=C(CN2CCN(c3ccc(C(=O)NS(=O)(=O)c4ccc(N[C@H](CCN5CCOCC5)CSc5ccccc5)c(S(=O)(=O)C(F)(F)F)c4)cc3)CC2)C1 [Navitoclax] (partner 0.5 µM) in the same assay as above. Details: first compound 0.5 µM.
Outline: as §1

In order of rising relative viability:
1. BEN  0.0672
2. EBC-1  0.525
3. H3255  0.587
4. COR-L 105  0.618
5. ChaGo-K-1  0.775
6. Calu-6  0.909
7. A-427  0.998
8. EKVX  1.09
9. CAL-12T  1.1
10. EMC-BAC-2  1.16
11. COR-L23  1.22
12. 201T  1.25
13. A549  1.29
14. EPLC-272H  1.31
